Data: patent publication US6432413B1, “Functional improvements in Fahr disease” (Wayne State University, priority 1998, dated 2002)

Legend:
Type in all cases: in vivo, human
[1] = Side effects during treatment of the Fahr disease patient; conditions: 15 mg/kg once daily
Method: (§1) After obtaining baseline measurements and informed consent, the patient was begun on 15 mg/kg of disodium etidronate given once daily for two 6 month periods, separated by a 6 month period off of the drug, which was carried out as an internal control and to allow for normal bone mineralization. Serial neurologic examinations were performed by the same physician, and included three quantitative measurements: counting from 1-20, counting from 20-1, and walking 15 feet and back. Instructions were given with the same amount of encouragement for each of the serial measurements. Duplicate measures of counting 1-20 and walking taken two weeks apart were averaged to produce baseline values. There was little variation between the duplicate measures. Baseline and follow-up videotapes of the neurologic exam and CAT scans, to quantify the amount of cerebral calcification, were obtained in a uniform manner.
For example, they could button their shirts, which they could not do previously.

[2] = test system: patient with familial, idiopathic cerebral calcinosis of the basal ganglia (Fahr disease); test: Treatment of a patient with Fahr disease: serial neurologic examinations, timed speech and gait, Blessed Dementia Scale
From the text: FIG. 2 is a series of graphs showing the effect of treatment on speech and gait. Timed measurements of speech (counting from 1-20 or 20-1) and gait (walking 15 feet and back) were made during two treatment cycles with disodium etidronate. The start and stop times indicate the times at which the medication was begun and discontinued, respectively. Each zero time point for counting 1-20 and walking 15 feet and back represents an average of 2 separate measurements, taken 2 weeks apart.
The patient is a person with hypertension and osteoarthritis who presented with transient right hemiparesis and dysarthria. […] Their major neurologic disabilities prior to treatment were slowness of gait and speech, rigidity, spasticity, cerebellar ataxia, dystonia, and dysphagia. They scored 6 points out of a possible 37 points on the right side of the Blessed Dementia Scale, which measures memory and concentration (6). A score of 0 points is without error. They had been having frequent emotional outbursts and inappropriate hypersexuality.
as §1

cerebral calcification = test: Quantitation of cerebral calcification by serial CAT scans
From the text: FIG. 1 is a series of axial CAT scans and 3-dimensional reconstructions of basal ganglia calcification. Panels A-D show the extent of cerebral calcification on axial CAT scan images showing involvement of the basal ganglia, thalamus, and cerebellum. Panels E-H are 3-dimensional reconstructions of the basal ganglia, thalami, and pineal gland in different projections. The patient is directly facing the viewer in Panel E, turning to the left by 30 degrees in Panel F, and by 60 degrees in Panel G. Panel H is a projection looking from above and behind the patient, in the same orientation as the CAT scans described above. […]
FIG. 3 is a graph showing quantitation of cerebral calcification. […]
Quantitative measurements of cerebral calcification were obtained using contiguous regions of calcification, defined as those containing pixels greater than 50 Hounsfield units, on each 3 mm coronal image. […]
After obtaining baseline measurements and informed consent, the patient was begun on 15 mg/kg of disodium etidronate given once daily for two 6 month periods, separated by a 6 month period off of the drug, which was carried out as an internal control and to allow for normal bone mineralization. Serial neurologic examinations were performed by the same physician, and included three quantitative measurements: counting from 1-20, counting from 20-1, and walking 15 feet and back. […]

[3] = test system: patient with Fahr disease; test: Previous drug treatments of the same Fahr disease patient; conditions: before the study
From the text: Prior to initiating and throughout the study, they were maintained on the same doses of baclofen, pergolide, lorazepam, naproxen, diltiazem, probanthiline bromide, and hyoscyamine sulfate. They were placed on isosorbide dinitrate 2 months into the study for ischemic heart disease.

[4] = second six month course of treatment

For `CC(O)(P(=O)(O)O)P(=O)(O)O` [disodium etidronate], the side effects [1] was “no side effects from the medication, except for transient elevations in serum phosphate”, the “gait and speech after stopping the medication” value ([2]; 6 month period off of the drug) was “significant deterioration in their gait, but little loss in the gains made with their speech” and the “speech, attention span, emotional outbursts and inappropriate sexual behavior as felt by the patient's family” value ([2]; after one month on 15 mg/kg once daily) was “their speech had become clearer, their attention span improved, and their emotional outbursts and inappropriate sexual behavior ceased”. For the same compound, the “bradykinesia and emotional lability” value ([2]; after treatment) was “clearly improved”, the “spasticity, cerebellar ataxia, and dystonia” value ([2]; after treatment) was “unchanged” and the “Blessed Dementia Scale score” value ([2]; eighteen months after beginning treatment, previous score 6, 0 points is without error) was 2. For the same compound, the “gait and fine motor skills” value ([2]; first treatment period, 15 mg/kg once daily) was “His gait also improved, together with fine motor skills”, the “increase in the speed of speech and gait (counting 1-20, 20-1, walking 15 feet and back)” value ([2]; over the first six months of treatment) was “two-fold increase” and the “counting from 1-20” value [2, 4] was “improvement”. The “counting from 20-1” value [2, 4] was “some deterioration”, the gait [2, 4] was “again improved” and the speech [2, 4] was “did not change appreciably”. For the same compound, the “other measurements of the speed of motor movement (rapid finger tapping and knee patting)” value ([2]; videotape before medication vs end of first six month treatment) was “improved considerably”, the “speech (rate and clarity)” value ([2]; within four months of treatment, 15 mg/kg once daily) was “their speech became more rapid and clear” and the “shape and size of the cerebral calcification, qualitative comparison of CAT scans and 3-dimensional reconstructions” value (cerebral calcification; after treatment) was “did not demonstrate any change”. For the same compound, the “brain calcium content, quantitative measurements from serial CAT scans (density x area)” value (cerebral calcification; before treatment vs after first (6 months) and second (18 months) treatment periods) was “did not show any reduction in brain calcium content, but perhaps a small increase”.

For `CCCN1C[C@H](CSC)C[C@@H]2c3cccc4[nH]cc(c34)C[C@H]21` [pergolide], the “improvement with previous drug treatment” value [3] was “minimal improvement”.

In the case of `O=C1Nc2ccc(Cl)cc2C(c2ccccc2Cl)=NC1O` (centres unmarked) [lorazepam], the “improvement with previous drug treatment” value [3] is reported as “minimal improvement”.

In the case of `NCC(CC(=O)O)c1ccc(Cl)cc1` (centres unmarked) [baclofen], the “improvement with previous drug treatment” value [3] is reported as “minimal improvement”.

For carbidopa-levodopa, the “improvement with previous drug treatment” value [3] was “minimal improvement”.
